Assay results taken from publication doi:10.1101/2023.03.24.534094v2 (biorxiv, 2023).
Read-outs that look alike come from different tables or passages of the source. Values belong to the compound of their own block, whether it stands above or below them.

Columns and labels:
Test in all cases: biochemical
[1] = biological target: CaMKK2 (Homo sapiens, UniProt Q96RR4)
[2] = biological target: T1, DYRK2 (Homo sapiens, UniProt Q92630)
T1 sequence (Q92630 1-601): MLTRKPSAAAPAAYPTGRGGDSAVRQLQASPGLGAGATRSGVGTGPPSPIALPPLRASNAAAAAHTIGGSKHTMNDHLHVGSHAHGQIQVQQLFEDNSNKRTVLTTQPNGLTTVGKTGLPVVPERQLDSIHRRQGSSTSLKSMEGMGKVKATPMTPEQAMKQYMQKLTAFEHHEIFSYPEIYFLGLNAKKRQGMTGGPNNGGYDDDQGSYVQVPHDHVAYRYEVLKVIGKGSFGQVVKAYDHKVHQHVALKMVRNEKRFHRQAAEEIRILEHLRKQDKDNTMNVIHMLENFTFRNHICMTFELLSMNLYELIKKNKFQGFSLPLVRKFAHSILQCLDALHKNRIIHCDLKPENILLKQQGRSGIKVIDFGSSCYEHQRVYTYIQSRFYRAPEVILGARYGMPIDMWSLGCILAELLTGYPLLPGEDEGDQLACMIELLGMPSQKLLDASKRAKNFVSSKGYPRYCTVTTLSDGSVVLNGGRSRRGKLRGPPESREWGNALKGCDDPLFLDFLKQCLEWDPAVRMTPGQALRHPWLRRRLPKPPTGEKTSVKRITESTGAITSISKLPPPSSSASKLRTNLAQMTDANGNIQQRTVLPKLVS

[3] = biological target: T2, FECH (Homo sapiens, UniProt P22830)
T2 sequence (P22830 1-423): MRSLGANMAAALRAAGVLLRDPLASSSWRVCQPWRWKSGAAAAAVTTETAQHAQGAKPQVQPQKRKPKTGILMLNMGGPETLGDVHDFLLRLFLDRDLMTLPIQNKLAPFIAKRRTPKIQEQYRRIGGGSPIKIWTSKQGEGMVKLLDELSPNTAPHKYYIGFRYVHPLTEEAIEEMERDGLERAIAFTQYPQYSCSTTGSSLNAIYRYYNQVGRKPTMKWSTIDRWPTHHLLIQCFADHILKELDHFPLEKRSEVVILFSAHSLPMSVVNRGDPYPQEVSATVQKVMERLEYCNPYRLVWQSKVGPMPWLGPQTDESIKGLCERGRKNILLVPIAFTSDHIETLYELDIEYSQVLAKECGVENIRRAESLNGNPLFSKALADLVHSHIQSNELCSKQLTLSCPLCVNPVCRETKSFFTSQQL

[4] = biological target: JNK3 (Homo sapiens, UniProt P53779)
JNK3, sequence (P53779 whole entry): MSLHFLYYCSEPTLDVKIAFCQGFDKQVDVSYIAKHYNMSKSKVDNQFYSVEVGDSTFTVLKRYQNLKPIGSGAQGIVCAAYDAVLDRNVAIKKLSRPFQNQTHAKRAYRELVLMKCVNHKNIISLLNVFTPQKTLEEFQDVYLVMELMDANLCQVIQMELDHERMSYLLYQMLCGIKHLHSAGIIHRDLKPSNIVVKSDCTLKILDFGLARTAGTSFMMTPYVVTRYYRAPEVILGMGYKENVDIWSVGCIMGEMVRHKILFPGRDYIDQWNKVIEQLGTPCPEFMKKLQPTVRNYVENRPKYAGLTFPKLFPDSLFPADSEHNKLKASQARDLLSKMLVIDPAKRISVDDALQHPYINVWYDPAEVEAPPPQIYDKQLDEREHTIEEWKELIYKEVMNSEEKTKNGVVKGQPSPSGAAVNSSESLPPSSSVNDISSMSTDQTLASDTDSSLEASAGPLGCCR

[5] = biological target: T3, MAP2K7 (Homo sapiens, UniProt O14733)
T3 sequence (O14733 1-419): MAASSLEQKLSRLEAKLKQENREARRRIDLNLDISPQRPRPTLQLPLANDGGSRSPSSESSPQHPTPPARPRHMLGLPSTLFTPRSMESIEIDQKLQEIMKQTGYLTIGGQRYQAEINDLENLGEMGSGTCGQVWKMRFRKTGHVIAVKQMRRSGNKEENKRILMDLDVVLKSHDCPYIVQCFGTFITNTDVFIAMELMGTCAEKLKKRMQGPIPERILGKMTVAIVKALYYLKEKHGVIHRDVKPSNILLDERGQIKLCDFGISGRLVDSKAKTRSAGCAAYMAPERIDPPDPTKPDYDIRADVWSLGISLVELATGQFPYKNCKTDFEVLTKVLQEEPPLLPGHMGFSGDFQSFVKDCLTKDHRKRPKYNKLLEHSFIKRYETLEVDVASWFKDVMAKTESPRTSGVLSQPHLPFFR

[6] = biological target: MRCKa (Homo sapiens, UniProt Q5VT25)
MRCKa, sequence (Q5VT25 whole entry): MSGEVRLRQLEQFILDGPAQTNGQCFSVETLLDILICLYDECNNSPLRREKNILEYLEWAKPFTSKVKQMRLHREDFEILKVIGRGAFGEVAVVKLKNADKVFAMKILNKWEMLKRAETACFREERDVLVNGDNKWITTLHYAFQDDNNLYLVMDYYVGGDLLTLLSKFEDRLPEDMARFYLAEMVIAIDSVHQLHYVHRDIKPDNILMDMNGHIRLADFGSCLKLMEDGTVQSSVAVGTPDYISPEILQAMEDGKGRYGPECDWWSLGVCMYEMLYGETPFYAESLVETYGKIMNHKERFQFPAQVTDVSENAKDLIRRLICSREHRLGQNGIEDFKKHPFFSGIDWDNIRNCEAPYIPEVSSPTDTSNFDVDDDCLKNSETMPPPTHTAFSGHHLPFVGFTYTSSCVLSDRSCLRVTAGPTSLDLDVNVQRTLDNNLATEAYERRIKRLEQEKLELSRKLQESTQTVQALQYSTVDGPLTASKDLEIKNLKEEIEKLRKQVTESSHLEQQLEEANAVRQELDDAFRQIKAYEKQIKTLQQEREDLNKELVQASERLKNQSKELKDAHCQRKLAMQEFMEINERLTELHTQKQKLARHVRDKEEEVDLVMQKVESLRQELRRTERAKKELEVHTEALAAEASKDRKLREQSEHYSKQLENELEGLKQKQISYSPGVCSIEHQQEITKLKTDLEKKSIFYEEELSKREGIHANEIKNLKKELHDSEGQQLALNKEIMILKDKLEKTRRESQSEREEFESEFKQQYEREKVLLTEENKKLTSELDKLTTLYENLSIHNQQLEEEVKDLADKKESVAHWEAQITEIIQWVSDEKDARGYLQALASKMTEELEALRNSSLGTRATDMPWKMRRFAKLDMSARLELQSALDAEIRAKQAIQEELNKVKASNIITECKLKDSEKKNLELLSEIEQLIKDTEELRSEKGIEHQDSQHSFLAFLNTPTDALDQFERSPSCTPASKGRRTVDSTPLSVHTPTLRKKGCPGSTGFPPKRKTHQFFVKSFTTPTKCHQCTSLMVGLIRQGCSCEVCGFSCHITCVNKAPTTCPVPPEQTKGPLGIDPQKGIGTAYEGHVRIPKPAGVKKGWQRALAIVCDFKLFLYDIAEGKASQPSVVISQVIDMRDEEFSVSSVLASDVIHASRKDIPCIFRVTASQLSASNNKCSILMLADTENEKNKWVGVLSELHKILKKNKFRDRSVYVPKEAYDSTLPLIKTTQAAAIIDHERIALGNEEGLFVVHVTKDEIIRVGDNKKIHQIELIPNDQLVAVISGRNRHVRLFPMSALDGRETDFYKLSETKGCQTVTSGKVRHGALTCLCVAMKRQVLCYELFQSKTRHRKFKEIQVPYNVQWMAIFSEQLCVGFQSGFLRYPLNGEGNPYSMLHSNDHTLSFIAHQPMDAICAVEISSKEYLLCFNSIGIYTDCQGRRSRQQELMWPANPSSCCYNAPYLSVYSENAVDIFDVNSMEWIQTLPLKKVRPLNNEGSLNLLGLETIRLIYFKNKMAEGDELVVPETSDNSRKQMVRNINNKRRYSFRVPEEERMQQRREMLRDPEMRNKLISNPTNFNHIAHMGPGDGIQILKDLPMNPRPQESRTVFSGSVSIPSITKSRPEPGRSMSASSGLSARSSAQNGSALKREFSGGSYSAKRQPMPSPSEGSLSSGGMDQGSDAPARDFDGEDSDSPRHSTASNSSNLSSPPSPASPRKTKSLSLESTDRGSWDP

[7] = biological target: NEK7 (Homo sapiens, UniProt Q8TDX7)
NEK7, sequence (Q8TDX7 whole entry): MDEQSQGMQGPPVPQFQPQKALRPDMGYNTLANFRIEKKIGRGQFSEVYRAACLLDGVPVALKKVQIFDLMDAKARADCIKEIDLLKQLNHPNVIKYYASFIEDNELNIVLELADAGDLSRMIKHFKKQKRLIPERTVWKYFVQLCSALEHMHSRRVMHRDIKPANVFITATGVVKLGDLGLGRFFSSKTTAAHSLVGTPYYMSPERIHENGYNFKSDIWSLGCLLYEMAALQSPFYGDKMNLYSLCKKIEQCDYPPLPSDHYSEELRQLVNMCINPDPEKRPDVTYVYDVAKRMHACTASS

CaMKK2, sequence (Q96RR4 whole entry): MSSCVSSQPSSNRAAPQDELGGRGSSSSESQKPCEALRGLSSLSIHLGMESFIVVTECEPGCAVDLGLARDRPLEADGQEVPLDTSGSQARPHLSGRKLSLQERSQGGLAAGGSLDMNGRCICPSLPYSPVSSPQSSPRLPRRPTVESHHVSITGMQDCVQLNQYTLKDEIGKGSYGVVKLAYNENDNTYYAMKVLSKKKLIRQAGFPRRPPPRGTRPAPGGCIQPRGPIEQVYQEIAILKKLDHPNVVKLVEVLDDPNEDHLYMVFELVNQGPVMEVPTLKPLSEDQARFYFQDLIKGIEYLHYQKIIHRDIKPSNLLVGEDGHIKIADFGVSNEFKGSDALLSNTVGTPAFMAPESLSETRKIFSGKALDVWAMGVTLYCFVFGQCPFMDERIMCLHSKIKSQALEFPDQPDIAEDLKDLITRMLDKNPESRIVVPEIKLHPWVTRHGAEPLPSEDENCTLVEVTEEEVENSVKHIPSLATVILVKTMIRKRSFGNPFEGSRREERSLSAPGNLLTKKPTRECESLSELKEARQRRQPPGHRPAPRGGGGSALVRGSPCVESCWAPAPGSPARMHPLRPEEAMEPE

SMILES: CNc1ncc2cc(-c3cc(Br)ccc3Br)c(=O)n(CCCCN)c2n1 [compound 11, 8-(4-Aminobutyl)-6-(2,5-dibromophenyl)-2-(methylamino)pyrido[2,3-d]pyrimidin-7(8H)-one]
- ΔTm at 10 µM ([1]; read-out: dTm 11): 0.6 °C
- ΔTm at 10 µM ([2]; read-out: dTm 11): 0 °C
- ΔTm at 10 µM ([3]; read-out: dTm 11): -1.6 °C
- ΔTm at 10 µM ([4]; read-out: dTm 11): 1.1 °C
- ΔTm at 10 µM ([5]; read-out: dTm 11): 0.5 °C
- ΔTm at 10 µM ([6]; read-out: dTm 11): -0.2 °C
- ΔTm at 10 µM ([7]; read-out: dTm 11): -0.2 °C

SMILES: CNc1ncc2cc(-c3cc(C(F)(F)F)ccc3Cl)c(=O)n(CCCCN)c2n1 [compound 9, 8-(4-Aminobutyl)-6-(2-chloro-5-(trifluoromethyl)phenyl)-2-(methylamino)pyrido[2,3-d]pyrimidin-7(8H)-one]
- ΔTm at 10 µM ([1]; read-out: dTm 9): 0.4 °C
- ΔTm at 10 µM ([2]; read-out: dTm 9): 0 °C
- ΔTm at 10 µM ([3]; read-out: dTm 9): -1.7 °C
- ΔTm at 10 µM ([4]; read-out: dTm 9): 1.3 °C
- ΔTm at 10 µM ([5]; read-out: dTm 9): 0.4 °C
- ΔTm at 10 µM ([6]; read-out: dTm 9): -0.5 °C
- ΔTm at 10 µM ([7]; read-out: dTm 9): 0.4 °C

SMILES: CNc1ncc2cc(-c3cc(Cl)ccc3Br)c(=O)n(CCCCN)c2n1 [compound 10, 8-(4-Aminobutyl)-6-(2-bromo-5-chlorophenyl)-2-(methylamino)pyrido[2,3-d]pyrimidin-7(8H)-one]
- ΔTm at 10 µM ([1]; read-out: dTm 10): 0.7 °C
- ΔTm at 10 µM ([2]; read-out: dTm 10): 0 °C
- ΔTm at 10 µM ([3]; read-out: dTm 10): -1.7 °C
- ΔTm at 10 µM ([4]; read-out: dTm 10): 1.3 °C
- ΔTm at 10 µM ([5]; read-out: dTm 10): 0.4 °C
- ΔTm at 10 µM ([6]; read-out: dTm 10): -0.2 °C
- ΔTm at 10 µM ([7]; read-out: dTm 10): -0.5 °C

More lines, now with the values ahead:

- ΔTm at 10 µM ([1]; read-out: dTm 12): 0 °C
- ΔTm at 10 µM ([2]; read-out: dTm 12): -0.2 °C
- ΔTm at 10 µM ([3]; read-out: dTm 12): -0.6 °C
- ΔTm at 10 µM ([4]; read-out: dTm 12): 0.4 °C
- ΔTm at 10 µM ([5]; read-out: dTm 12): 1.7 °C
- ΔTm at 10 µM ([6]; read-out: dTm 12): -0.8 °C
- ΔTm at 10 µM ([7]; read-out: dTm 12): -2.1 °C
SMILES: CNc1ncc2cc(-c3cc(F)c(-c4cccc(C)n4)cc3F)c(=O)n(CCCCN)c2n1 [compound 12, 8-(4-Aminobutyl)-6-(2,5-difluoro-4-(6-methylpyridin-2-yl)phenyl)-2-(methylamino)pyrido[2,3-d]pyrimidin-7(8H)-one]

- ΔTm at 10 µM ([1]; read-out: dTm 8): 0.6 °C
- ΔTm at 10 µM ([2]; read-out: dTm 8): 0.1 °C
- ΔTm at 10 µM ([3]; read-out: dTm 8): -1.7 °C
- ΔTm at 10 µM ([4]; read-out: dTm 8): 0.8 °C
- ΔTm at 10 µM ([5]; read-out: dTm 8): 0.6 °C
- ΔTm at 10 µM ([6]; read-out: dTm 8): 0 °C
- ΔTm at 10 µM ([7]; read-out: dTm 8): -0.2 °C
SMILES: CNc1ncc2cc(-c3cc(Cl)ccc3Cl)c(=O)n(CCCCN)c2n1 [compound 8, 8-(4-Aminobutyl)-6-(2,5-dichlorophenyl)-2-(methylamino)pyrido[2,3-d]pyrimidin-7(8H)-one]
